What was measured:
HepG2 cells [1] = experiment: Intracellular Ca2+ level and lipid accumulation in palmitic acid-treated HepG2 cells (confocal microscopy, fluorescent dyes); type: cell-based, Human; conditions: for lipid accumulation: palmitic acid-treated HepG2, BODIPY; for fluorescence intensity for intracellular Ca2+: palmitic acid-treated HepG2, Calbryte 630 AM
Experimental: Subsequently, to determine whether ARBs can regulate intracellular Ca^2+ levels and lipid accumulation in HepG2 cells treated with palmitic acid, the effects of ARBs were evaluated using confocal microscopy and the fluorescent dyes Calbryte 630 AM (for intracellular Ca^2+) and BODIPY (for lipids).
Specifically, for intracellular Ca^2+ concentration and lipid accumulation, HepG2 cells were plated on slide glasses, treated with 0.5 mM palmitic acid for 16 hours, and incubated with 4 μM Fura-2-AM (Teflabs), […] Calbryte 630 AM, or […] BODIPY in PBS for 30 minutes at 37° C. in the dark. The cells were then washed with PBS for 10 minutes. Subsequently, the cells were counterstained with 4,6-diamidino-2-phenylindole (DAPI) to visualize nuclei. After mounting, the stained slides were imaged using a Zeiss LSM 700 or Zeiss LSM 980 laser scanning confocal microscope (Carl Zeiss) and analyzed using ZEN 2010 Software (Carl Zeiss). Intracellular Ca^2+ was quantified from the microscopic images using the NIH ImageJ software (https://imagej.nih.gov/ij/, 1997-2017). […]

AKT PH domain [2] = experiment: Insulin-stimulated membrane localization of AKT PH domain in palmitic acid-treated HepG2 cells; type: cell-based, Human; conditions: 100 nM insulin 15 min, AKT PH mCherry
Experimental: One mechanism of insulin resistance is that, in the state of obesity and diabetes, an increase in the concentration of calcium in the cytoplasm leads to calcium binding to PI(3, 4, 5)P3 present in the cell membrane, generating Ca^2+-PI(3, 4, 5)P3, which inhibits binding to the PH domain of AKT and suppresses AKT protein activity, thereby inducing insulin resistance. Accordingly, it was evaluated whether azilsartan and candesartan, which were shown in the above examples to attenuate palmitic acid-induced intracellular Ca^2+ overload, regulate the intracellular localization of the AKT PH domain, which functions as a biosensor for PI(3, 4, 5)P3.
(§1) Specifically, CHO cells or HepG2 cells were transfected with cDNA encoding hAKT PHD (residues 1 to 144) using Lipofectamine (Life Technologies). To monitor the intracellular localization of endogenous AKT, liver sections were antigen activated with 10 mM Tris/HCl (pH 9.0) for 20 minutes, treated with serum-free protein blocking solution (DAKO) for 30 minutes, and permeabilized with 0.5% Tween 20 for 15 minutes. The liver sections were then incubated with anti-AKT PHD antibody (SKB1, #05-591, Sigma-Aldrich) and FITC-conjugated secondary antibody. After mounting, the liver sections were imaged with an LSM 980 laser scanning confocal microscope (Carl Zeiss), and the images were analyzed using ZEN software (Carl Zeiss).
When administering azilsartan or candesartan to cells, the impairment induced by palmitic acid was recovered.

HepG2 cells [3] = experiment: Insulin-stimulated phosphorylation of Akt and downstream molecules in palmitic acid-treated HepG2 cells (immunoblot); type: cell-based, Human; conditions: HepG2, 0.5 mM palmitic acid 16 h, ARB 5, 10, 20 μM; dose-dependent
Experimental: Tissues and cells were lysed using a modified RIPA buffer (50 mM Tris-HCl pH 7.4, 1% Triton X-100, 150 mM NaCl, 1 mM EDTA; Cell Signaling Technology) freshly supplemented with 1 mM Na3VO4, […], and protease inhibitor cocktail (Complete Mini, Roche). Equal amounts of proteins were separated on 4-12% gels and electrophoretically transferred to polyvinylidene difluoride (PVDF) membranes. Immunoblots were visualized with horseradish peroxidase-conjugated secondary antibodies and enhanced chemiluminescence kits (ECL kits; GE Healthcare Life Sciences) using a charge-coupled device camera (Amersham ImageQuant 800). Specifically, nine FDA-approved ARBs (losartan, eprosartan, fimasartan, irbesartan, olmesartan, telmisartan, valsartan, azilsartan, and candesartan) commonly prescribed for the treatment of hypertension in human patients were administered to HepG2 cells at various concentrations (5 μM, 10 μM, and 20 μM) in combination with 0.5 mM palmitic acid for 16 hours. Then, the insulin-stimulated phosphorylation of the key insulin signaling molecule Akt and its downstream signaling molecules GSK3β and FOXO3 was investigated. The results of Example 1 indicate that azilsartan and candesartan have beneficial off-target effects on insulin signaling and intracellular Ca^2+ homeostasis that are distinct from their known effects as angiotensin receptor blockers. […]

AKT PH domain [4] = experiment: Insulin-stimulated membrane localization of AKT PH domain in PMA-treated CHO-IR cells; type: cell-based, Chinese hamster
Experimental: as §1, with “Zeiss). Similarly, in phorbol myristate acetate (PMA)-treated Chinese hamster ovary-insulin receptor (CHO-IR) cells, it was confirmed that insulin-stimulated membrane localization of the AKT PH domain was rescued by treatment with azilsartan or candesartan (FIG. 3b).” for “Zeiss).”

HFD-fed mice = experiment: Postprandial phosphorylation of AKT and downstream substrates in HFD-fed mice; type: in vivo; conditions: fasted overnight, re-fed HFD 4 hours
Experimental: Tissues and cells were lysed using a modified RIPA buffer (50 mM Tris-HCl pH 7.4, 1% Triton X-100, 150 mM NaCl, 1 mM EDTA; Cell Signaling Technology) freshly supplemented with 1 mM Na3VO4, […], and protease inhibitor cocktail (Complete Mini, Roche). Equal amounts of proteins were separated on 4-12% gels and electrophoretically transferred to polyvinylidene difluoride (PVDF) membranes. Immunoblots were visualized with horseradish peroxidase-conjugated secondary antibodies and enhanced chemiluminescence kits (ECL kits; GE Healthcare Life Sciences) using a charge-coupled device camera (Amersham ImageQuant 800). To elucidate the role of candesartan on insulin signaling in vivo, mice were fasted overnight and then re-fed an HFD for 4 hours, and postprandial phosphorylation of AKT and its downstream signaling substrates FOXO1A, FOXO3A, GSK3B, and AS160 was measured.

SMILES | lipid accumulation (HepG2 cells [1]) | fluorescence intensity for intracellular Ca2+ (HepG2 cells [1]) | palmitic acid-induced impairment of insulin-stimulated membrane localization of the AKT PH domain (AKT PH domain [2]) | insulin-stimulated phosphorylation of Akt, GSK3B, and FOXO3 (HepG2 cells [3]) | insulin-stimulated membrane localization of the AKT PH domain (AKT PH domain [4]) | postprandial phosphorylation of AKT, FOXO1A, FOXO3A, GSK3B, and AS160, increase compared to the control group (HFD-fed mice)
CCCCc1ncc(/C=C(\Cc2cccs2)C(=O)O)n1Cc1ccc(C(=O)O)cc1 [eprosartan] | did not significantly affect | did not significantly affect | did not rescue | – | – | –
CCCc1nc2c(C)cc(-c3nc4ccccc4n3C)cc2n1Cc1ccc(-c2ccccc2C(=O)O)cc1 [telmisartan] | did not significantly affect | did not significantly affect | did not rescue | – | – | –
CCCCc1nc(Cl)c(CO)n1Cc1ccc(-c2ccccc2-c2nn[nH]n2)cc1 [losartan] | did not significantly affect | did not significantly affect | did not rescue | – | – | –
CCCCC1=NC2(CCCC2)C(=O)N1Cc1ccc(-c2ccccc2-c2nnn[nH]2)cc1 [irbesartan] | did not significantly affect | did not significantly affect | did not rescue | – | – | –
CCOc1nc2cccc(C(=O)O)c2n1Cc1ccc(-c2ccccc2-c2nc(=O)o[nH]2)cc1 [azilsartan] | significantly reduced | significantly reduced | recovered | completely restored | rescued | –
CCOc1nc2cccc(C(=O)O)c2n1Cc1ccc(-c2ccccc2-c2nnn[nH]2)cc1 [candesartan] | – | – | – | – | – | 4- to 10 fold

— patent US20260263425A1, “USE OF COMPOSITION CONTAINING CANDESARTAN OR AZILSARTAN” (GACHON UNIVERSITY OF INDUSTRY-ACADEMIC COOPERATION …, priority 2023, published 2026)
